The source of these data is article PMC12530851, “Design, synthesis, and apoptotic antiproliferative activity of novel dihydropyrimidine-5-carbonitrile/1,2,4-oxadiazole hybrids as dual EGFR/VEGFR-2 inhibitors endowed with antioxidant activity” (RSC Advances, 2025).

Values joined by “and” are separate entries in the source; they are usually repeats but may differ in a detail not shown here. Equal entries are not always repeated.

One assay concerns caspase-8. Kind of assay: Caspase-8 activation assay in MCF-7 cells. Format: cell-based, human. The settings on record: for Caspase-8 Fold change: vs untreated control. Here is the method:
(§1) Compounds10k and 10l were tested as caspases-3, 8, 9, Bax and p53 activators and as down-regulators of the anti-apoptotic protein Bcl2 against the MCF-7 breast cancer cell line.[41] Appendix A gives more details.
To elucidate the apoptotic processes of compounds 10k and 10l, whether via the intrinsic or extrinsic pathway, their impacts on caspase-8 and caspase-9 were evaluated. […] This signifies the activation of both intrinsic and extrinsic pathways (Table 5).
4.2.6. Caspase-8/9 activation assay
Cells were obtained from American Type Culture Collection, cells were grown in RPMI 1640 containing 10% fetal bovine serum at 37°C, stimulated with the compounds to be tested for caspase 8/9, and lysed with Cell Extraction Buffer. This lysate was diluted in Standard Diluent Buffer over the range of the assay and measured for human active caspase-8/9 content. (Cells are Plated in a density of 1.2 – 1.8 × 10,000 cells/well in a volume of 100µl complete growth medium + 100 ul of the tested compound per well in a 96-well plate for 24 hours before the enzyme assay). The absorbance of each microwell was read on a spectro-photometer at 450 nm. […]

The test system of a further assay is Bcl-2. Description: Bcl-2 level assay in MCF-7 cells. As to conditions: for Bcl-2 Fold reduction: vs untreated control. The class given is cell-based, human. Here is the method: as §1
The Bcl-2 protein family, which includes pro-apoptotic proteins (Bax) and anti-apoptotic proteins (Bcl-2), primarily regulates apoptosis.[46] […] Consequently, we assessed the expression levels of Bcl-2 and Bax proteins in MCF-7 breast cancer cells treated with compounds 10k and 10l, Table 6. […]
4.2.8. Bcl-2 inhibition assay
Mix all the reagents thoroughly without foaming before use. Wash the microwells twice with approximately 300 μL Wash Buffer per well with thorough aspiration of microwell contents between washes. Take caution not to scratch the surface of the microwells. After the last wash, empty the wells and tap microwell strips on absorbent pad or paper towel to remove excess Wash Buffer. Use the microwell strips immediately after washing or place upside down on a wet absorbent paper for not longer than 15 minutes. […] Add 100 μL of Sample […]
Diluent in duplicate to all standard wells and to the blank wells. Prepare standard (1:2 dilution) in duplicate ranging from 32 ng/mL to 0.5 ng/mL. Add 100 μL of Sample Diluent, in duplicate, to the blank wells. Add 80 μL of Sample Diluent, in duplicate, to the sample wells. Add 20 μL of each Sample, in duplicate, to the designated wells. Add 50 μL of diluted biotin-conjugate to all wells, including the blank wells. Cover with a plate cover and incubate at room temperature, on a microplate shaker at 100 rpm if available, for 2 hours. Remove plate cover and empty the wells.
Wash microwell strips 3 times as described in step 2. Add 100 μL of diluted Streptavidin-HRP to all wells, including the blank wells. Cover with a plate cover and incubate at room temperature, on a microplate shaker at 100 rpm if available, for 1 hour. Remove the plate cover and empty the wells. Wash microwell strips 3 times as described in step 2. Proceed to the next step. Pipette 100 μl of mixed TMB Substrate Solution to all wells, including the blanks. […] The point, at which the substrate reaction is stopped, is often determined by the ELISA reader. Many ELISA readers record absorbance only up to 2.0
O.D. Therefore, the color development within individual microwells must be watched by the person running the assay and the substrate reaction stopped before positive wells are no longer properly detectable. […] Results must be read immediately after the Stop Solution is added or within one hour if the microwell strips are stored at 2 - 8°C in the dark. Read the absorbance of each microwell on a spectrophotometer using 450 nm as the primary wavelength.

Consider `COc1ccc(-c2nc(SCc3nc(-c4ccc(Cl)cc4)no3)[nH]c(=O)c2C#N)cc1` [Compound 10k, 2-(((3-(4-Chlorophenyl)-1,2,4-oxadiazol-5-yl)methyl)thio)-4-(4-methoxyphenyl)-6-oxo-1,6-dihydropyrimidine-5-carbonitrile], for which, in the assay on caspase-8, the “Caspase-8 Conc” value is 2.50 ± 0.20 ng/mL; the “Caspase-8 Fold change” value is 25 fold and 25.00 fold. In the assay on Bcl-2, the Bcl-2 came to 1.20 ± 0.001 ng/mL and the “Bcl-2 Fold reduction” value was determined as 4 fold.
`COc1ccc(-c2noc(CSc3nc(-c4ccc(OC)cc4)c(C#N)c(=O)[nH]3)n2)cc1` [Compound 10l, 2-(((3-(4-Methoxyphenyl)-1,2,4-oxadiazol-5-yl)methyl)thio)-4-(4-methoxyphenyl)-6-oxo-1,6-dihydropyrimidine-5-carbonitrile]: in the assay on caspase-8, the “Caspase-8 Conc” value came to 2.00 ± 0.10 ng/mL; the “Caspase-8 Fold change” value is 20 fold and 20.00 fold. Besides, in the assay on Bcl-2, the Bcl-2 is 1.50 ± 0.001 ng/mL and the “Bcl-2 Fold reduction” value came out at 3 fold.
